# Measurements from patent US20220125837A1, “METHODS FOR CONTROLLED ELIMINATION OF THERAPEUTIC CELLS” (Bellicum Pharmaceuticals, Inc., priority 2014, published 2022).
# Tests used:
# [1] = system: F-Casp9M.I.GFPhigh-transduced T cells; experiment: Annexin V/7-AAD staining of iCasp9M GFPhigh T cells after CID; format: cell-based, human
# Method: CID (AP20187; ARIAD Pharmaceuticals) at indicated concentrations was added to transfected 293T cells or transduced CTLs. Adherent and nonadherent cells were harvested and washed with annexin binding buffer (BD Pharmingen, San Jose, Calif.). Cells were stained with annexin-V and 7-amino-actinomycin D (7-AAD) for 15 minutes according to the manufacturer's instructions (BD Pharmingen). Within 1 hour after staining, cells were analyzed by flow cytometry using CellQuest software (Becton Dickinson).
# A representative example of 3 separate experiments is shown.
# For clinical applications therefore, versions of the expression constructs with selectable markers that allow selection for high copy number, high levels of expression, or both high copy number and high levels of expression may be desirable. […] The dose response remained unchanged for at least 4 weeks after transduction.
# [2] = system: Jurkat cells; experiment: CID-induced apoptosis (annexin V) in transduced Jurkat cells; format: cell-based, human; conditions: 10 nM CID for 8 hours
# [3] = system: MT-2 cells; experiment: CID-induced apoptosis (annexin V) in transduced MT-2 cells; format: cell-based, human; conditions: 10 nM CID for 8 hours
# [4] = system: non-transduced cells; experiment: Viability of non-transduced cells with AP20187; format: cell-based, human; conditions: n=6
# Method: Suicide gene functionality was assessed by adding a small molecule synthetic homodimerizer, AP20187 (Ariad Pharmaceuticals; Cambridge, Mass.), at 10 nM final concentration the day following CD19 immunomagnetic selection. Cells were stained with annexin V and 7-amino-actinomycin (7-AAD)(BD Pharmingen) at 24 hours and analyzed by flow cytometry. Cells negative for both annexin V and 7-AAD were considered viable, cells that were annexin V positive were apoptotic, and cells that were both annexin V and 7-AAD positive were necrotic. The percentage killing induced by dimerization was corrected for baseline viability as follows: Percentage killing=100%−(% Viability in AP20187-treated cells÷% Viability in non-treated cells).
# The day following immunomagnetic selection, 10 nM of the chemical inducer of dimerization, AP20187, was added to induce apoptosis, which appeared within 24 hours.
# [5] = system: iCasp9-ΔCD19-transduced MSCs; experiment: In vivo killing of iCasp9 MSCs in SCID mice (luminescence, qPCR)
# Method: All mouse experiments were performed in accordance with the Baylor College of Medicine animal husbandry guidelines. To assess the persistence of modified MSCs in vivo, a SCID mouse model was used in conjunction with an in vivo imaging system. MSCs were transduced with retroviruses coding for the enhanced green fluorescent protein-firefly luciferase (eGFP-FFLuc) gene alone or together with the iCasp9-ΔCD19 gene. Cells were sorted for eGFP positivity by fluorescence activated cell sorting using a MoFlo flow cytometer (Beckman Coulter, Fullerton, Calif.). Doubly transduced cells were also stained with PE-conjugated anti-CD19 and sorted for PE-positivity. SCID mice (8-10 weeks old) were injected subcutaneously with 5×10^5 MSCs with and without iCasp9-ΔCD19 in opposite flanks. […] For in vivo imaging of MSCs expressing eGFP-FFLuc, mice were injected intraperitoneally with D-luciferin (150 mg/kg) and analyzed using the Xenogen-IVIS Imaging System. Total luminescence (a measurement proportional to the total labeled MSCs deposited) at each time point was calculated by automatically defining regions-of-interest (ROIs) over the MSC implantation sites. These ROIs included all areas with luminescence signals at least 5% above background. Total photon counts were integrated for each ROI and an average value calculated. […]
# [6] = system: differentiated iCasp9-positive MSCs; experiment: Apoptosis of differentiated iCasp9 MSCs after CID (TUNEL, cell density); conditions: adipocytic differentiation; 50 nM CID; 24 hours; from 584
# [7] = T cells selected for high expression, overnight 10 nM CID, mean
# [8] = representative example of 3 experiments
compound,measurement,setting,value
CC[C@H](C(=O)N1CCCC[C@H]1C(=O)O[C@H](CCc1ccc(OC)c(OC)c1)c1cccc(OCC(=O)NCC(CNC(=O)COc2cccc([C@@H](CCc3ccc(OC)c(OC)c3)OC(=O)[C@@H]3CCCCN3C(=O)[C@@H](CC)c3cc(OC)c(OC)c(OC)c3)c2)CN(C)C)c1)c1cc(OC)c(OC)c(OC)c1 [AP20187],apoptotic (annexin-V+/7-AAD−) phenotype,[1]; [7],64%
same,necrotic (annexinV+/7-AAD+) phenotype,[1]; [7],30%
same,"apoptotic phenotype (annexin V+, 7-AAD−)",[1]; [8],64%
same,"necrotic phenotype (annexin V+, 7-AAD+)",[1]; [8],32%
same,apoptosis (annexin-V staining),[2]; iCasp9M-transduced Jurkat,57.2%+/−18.9%
same,apoptosis (annexin-V staining),[2]; iFas-transduced Jurkat,56.4%+/−15.6%
same,apoptosis (annexin-V staining),[3]; iCasp9M-transduced MT-2,57.9%+/−11.9%
same,apoptosis (annexin-V staining),[3]; iFas-transduced MT-2,19.3%+/−8.4%
same,viability of non-transduced cells with AP20187,[4],about 86%±9%
same,"surviving iCasp9-positive cells, % of the original population",[5]; after one week,0.7%
same,killing / depletion of iCasp9-positive cells in vivo,"[5]; two injections of 50 μg of CID 24 hours apart, qPCR",> 99%
same,cell density after CID,[6],< 14 cells/mm2
